Source: publication PMC7270110, “Labeled oxytocin administered via the intranasal route reaches the brain in rhesus macaques” (Nature Communications, 2020)

Assay: Brain tissue concentration of endogenous OT (d0OT) by LC-MS/MS (terminal experiment)
Type: in vivo, rhesus macaques (Macaca mulatta)
Design: key: ND: not detected; +: detected but not quantifiable
Details: for Concentrations of endogenous brain oxytocin (OT): molarity calculated for extracellular fluid volume; for BRAIN OT concentration (endogenous): LC-MS/MS
Procedure: Monkeys were divided into three groups, each with two monkeys; each group received the following in a terminal study at the 5th week: Group 1 (Monkeys ID# 1 and ID# 5) received 40 IU of d5OT IN, Group 2 received 80 IU of d5OT IN (Monkeys ID# 2 and ID# 4) and Group 3 received 80 IU of d5OT IV (Monkeys ID# 3 and ID# 6). Animals were perfused on average, 140 ± 7 (mean ± SD) min after d5OT administration (range = 135–149 min) (Table 4). Plasma and CSF were drawn just before administration of d5OT, at the midpoint between d5OT administration and perfusion (~60 min post-d5OT administration), and just before perfusion.
Brain tissue distribution of d5OT, as well as the endogenous concentrations of OT (d0OT), were measured in the following 12 brain regions: cerebellum, brainstem, striatum, amygdala, thalamus, visual cortex, insular cortex, hypothalamus, hippocampus, mPFC (Brodmann areas 32,25,24), dPFC (Brodmann areas 46,9,10), and OFC (Brodmann areas 14,13,12) (Tables 1, 2 and 3).
Brain tissue sample preparation: Samples (~1.5 mg per sample) were individually weighed and placed into 12 mm × 75 mm glass tubes containing 1.5 ml ice-cold 1 M acetic acid and 30 µl of OT-d10 internal standard. Tissues were homogenized on ice and the resulting homogenates were poured into individual 15 ml polystyrene tubes. The original glass tube was rinsed with 1 ml acetonitrile, and this rinse was added to the appropriate 15 ml polystyrene tube containing the homogenate. After all homogenizations were complete, 3 ml acetonitrile was added to each tube and extraction proceeded, as described for the plasma and CSF samples.
LC–MS/MS instrument parameters: Microtiter plates were prepared, as described above, and loaded onto a SIL-30ACMP autosampler set at 4 °C (Shimadzu). Forty microliters of each standard, QC or sample were injected onto an ACE Excel 2 C18-PFP 50 mm × 2.1 mm column (Advanced Chromatography Technologies, LTD, Aberdeen, Scotland) at 50 °C using reversed-phase chromatography. Mobile phase A was 0.1% formic acid in water and mobile phase B was 0.1% formic acid in ACN. The LC time gradient was created using two Nexera LC-30AD pumps (Shimadzu) running at 0.5 ml/min. Chromatography for serum and CSF samples began at 10% B and ended at 16% B at 3.6 min. One minute at 60% B was then required to wash the column, and the pumps re-equilibrated at 10% B for an additional 1.7 min (total run time ~6 min). Outside of the 1.55–3.55 min window during which OT eluted, a divert valve sent the LC effluent to waste.
Heated electrospray […] in positive mode, with scheduled multiple reaction monitoring (MRM) on a Shimadzu LCMS-8050, was used for detection of OT. The interface temperature was 270 °C and heat block temperature was 170 °C. Gas was supplied by a Peak Genius 1051 nitrogen and air generator (Peak Scientific, Inchinnan, UK). Nitrogen gas was used for nebulizing (1 L/min) and drying (8.2 L/min), while air was used for heating (7.8 L/min). A capillary B needle was used in the interface. Needle protrusion was set to 1.25 mm and probe distance was set to 1.0 mm; both were determined empirically. Argon (Airgas, Radnor, PA) was used for the collision-induced dissociation at 330 kPa. The MS/MS conditions for OT were optimized using the automated MRM optimization procedure in LabSolutions software (Shimadzu). We collected two MRM transitions each, for d0OT (1007.40 > 723.40 and 1007.40 > 285.30), d5OT (1012.00 > 723.40 and 1012.00 > 290.35), and d10OT (1017.70 > 723.35 and 1017.70 > 295.40); the first transition listed in each case was used for quantitation, while the second was used as a reference ion. Retention times for d0OT, d5OT, and d10OT were 3.290, 3.270, and 3.253 min, respectively.
The sensitivities of each assay within the method were determined by the lowest and highest concentration calibrators in the calibration curve. The lower limit of quantitation (LLOQ) for d0OT was 10 pg/ml (4 pg/col); the LLOQ for d5OT was 100 pg/ml (40 pg/col). […]

Concentrations of endogenous brain oxytocin (OT) (Amygdala, 40 IN, monkey #5 (F)): 2.14e-07 M
Concentrations of endogenous brain oxytocin (OT) (Amygdala, 80 IN, monkey #2 (M)): 3.2e-08 M
Concentrations of endogenous brain oxytocin (OT) (Amygdala, 80 IN, monkey #4 (M)): 1.31e-07 M
Concentrations of endogenous brain oxytocin (OT) (Amygdala, 80 IV, monkey #3 (F)): 2.5e-08 M
Concentrations of endogenous brain oxytocin (OT) (Amygdala, 80 IV, monkey #6 (F)): 4e-08 M
BRAIN OT concentration (endogenous) (Amygdala, after d5OT 40 IU IN, monkey #5 (F), perfused 138 min post-dose): 39.11 pg/mg
BRAIN OT concentration (endogenous) (Amygdala, after d5OT 80 IU IN, monkey #2 (M), perfused 136 min post-dose): 5.82 pg/mg
BRAIN OT concentration (endogenous) (Amygdala, after d5OT 80 IU IN, monkey #4 (M), perfused 135 min post-dose): 23.97 pg/mg
BRAIN OT concentration (endogenous) (Amygdala, after d5OT 80 IU IV, monkey #3 (F), perfused 149 min post-dose): 4.63 pg/mg
BRAIN OT concentration (endogenous) (Amygdala, after d5OT 80 IU IV, monkey #6 (F), perfused 135 min post-dose): 7.26 pg/mg
Concentrations of endogenous brain oxytocin (OT) (Brainstem, 40 IN, monkey #1 (F)): 4e-08 M
Concentrations of endogenous brain oxytocin (OT) (Brainstem, 40 IN, monkey #5 (F)): 5.1e-08 M
Concentrations of endogenous brain oxytocin (OT) (Brainstem, 80 IN, monkey #2 (M)): 2.8e-08 M
Concentrations of endogenous brain oxytocin (OT) (Brainstem, 80 IN, monkey #4 (M)): 1.9e-08 M
Concentrations of endogenous brain oxytocin (OT) (Brainstem, 80 IV, monkey #3 (F)): 6e-08 M
Concentrations of endogenous brain oxytocin (OT) (Brainstem, 80 IV, monkey #6 (F)): 2e-08 M
BRAIN OT concentration (endogenous) (Brainstem, after d5OT 40 IU IN, monkey #1 (F), perfused 148 min post-dose): 7.27 pg/mg
BRAIN OT concentration (endogenous) (Brainstem, after d5OT 40 IU IN, monkey #5 (F), perfused 138 min post-dose): 9.34 pg/mg
BRAIN OT concentration (endogenous) (Brainstem, after d5OT 80 IU IN, monkey #2 (M), perfused 136 min post-dose): 5.11 pg/mg
BRAIN OT concentration (endogenous) (Brainstem, after d5OT 80 IU IN, monkey #4 (M), perfused 135 min post-dose): 3.55 pg/mg
BRAIN OT concentration (endogenous) (Brainstem, after d5OT 80 IU IV, monkey #3 (F), perfused 149 min post-dose): 10.93 pg/mg
BRAIN OT concentration (endogenous) (Brainstem, after d5OT 80 IU IV, monkey #6 (F), perfused 135 min post-dose): 3.58 pg/mg
Concentrations of endogenous brain oxytocin (OT) (Cerebellum, 40 IN, monkey #1 (F)): 1.2e-08 M
Concentrations of endogenous brain oxytocin (OT) (Cerebellum, 40 IN, monkey #5 (F)): <1e-09 M
Concentrations of endogenous brain oxytocin (OT) (Cerebellum, 80 IN, monkey #4 (M)): <1e-09 M
Concentrations of endogenous brain oxytocin (OT) (Cerebellum, 80 IV, monkey #6 (F)): +
BRAIN OT concentration (endogenous) (Cerebellum, after d5OT 40 IU IN, monkey #1 (F), perfused 148 min post-dose): 2.16 pg/mg
BRAIN OT concentration (endogenous) (Cerebellum, after d5OT 40 IU IN, monkey #5 (F), perfused 138 min post-dose): 0.12 pg/mg
BRAIN OT concentration (endogenous) (Cerebellum, after d5OT 80 IU IN, monkey #4 (M), perfused 135 min post-dose): 0.06 pg/mg
BRAIN OT concentration (endogenous) (Cerebellum, after d5OT 80 IU IV, monkey #6 (F), perfused 135 min post-dose): +
Concentrations of endogenous brain oxytocin (OT) (Hippocampus, 40 IN, monkey #1 (F)): 5e-09 M
Concentrations of endogenous brain oxytocin (OT) (Hippocampus, 40 IN, monkey #5 (F)): 5e-09 M
Concentrations of endogenous brain oxytocin (OT) (Hippocampus, 80 IN, monkey #2 (M)): 1.5e-08 M
Concentrations of endogenous brain oxytocin (OT) (Hippocampus, 80 IN, monkey #4 (M)): 1.5e-08 M
Concentrations of endogenous brain oxytocin (OT) (Hippocampus, 80 IV, monkey #3 (F)): 5e-09 M
Concentrations of endogenous brain oxytocin (OT) (Hippocampus, 80 IV, monkey #6 (F)): 5e-09 M
BRAIN OT concentration (endogenous) (Hippocampus, after d5OT 40 IU IN, monkey #1 (F), perfused 148 min post-dose): 0.99 pg/mg
BRAIN OT concentration (endogenous) (Hippocampus, after d5OT 40 IU IN, monkey #5 (F), perfused 138 min post-dose): 0.99 pg/mg
BRAIN OT concentration (endogenous) (Hippocampus, after d5OT 80 IU IN, monkey #2 (M), perfused 136 min post-dose): 2.83 pg/mg
BRAIN OT concentration (endogenous) (Hippocampus, after d5OT 80 IU IV, monkey #3 (F), perfused 149 min post-dose): 0.99 pg/mg
BRAIN OT concentration (endogenous) (Hypothalamus, after d5OT 40 IU IN, monkey #1 (F), perfused 148 min post-dose): 2186.74 pg/mg
BRAIN OT concentration (endogenous) (Hypothalamus, after d5OT 80 IU IN, monkey #2 (M), perfused 136 min post-dose): 943.27 pg/mg
BRAIN OT concentration (endogenous) (Hypothalamus, after d5OT 80 IU IV, monkey #3 (F), perfused 149 min post-dose): 1491.96 pg/mg
Concentrations of endogenous brain oxytocin (OT) (Insular Cortex, 40 IN, monkey #5 (F)): 2e-09 M
Concentrations of endogenous brain oxytocin (OT) (Insular Cortex, 80 IN, monkey #4 (M)): <1e-09 M
Concentrations of endogenous brain oxytocin (OT) (Insular Cortex, 80 IV, monkey #3 (F)): 1e-09 M
SMILES: CC[C@H](C)[C@@H]1NC(=O)[C@H](Cc2ccc(O)cc2)NC(=O)[C@@H](N)CSSC[C@@H](C(=O)N2CCC[C@H]2C(=O)N[C@@H](CC(C)C)C(=O)NCC(N)=O)NC(=O)[C@H](CC(N)=O)NC(=O)[C@H](CCC(N)=O)NC1=O [OT, oxytocin]
